Results taken from patent US5942494A, “Stimulation of gene expression and synthesis of heat shock protein 72/73 (HSP 70)” (The Trustees of Columbia University in the City of New York, priority 1996, dated 1999).
Numbered stars: 1 amine (or outer) side, 2 acyl side, 3 side chain; on linkers, the order of the positions; unused ones are H or OH. Bridge positions count the residues as written; N and C are the ends. Square brackets hold non-standard residues; d marks the D form. Peptide text beside a SMILES is read from it. I, II: the chains in the order shown. * marks the point of attachment. Actinocin(9to1) = Cc1c2oc3c(C)ccc(C(=O)[*:1])c3nc-2c(C(=O)[*:2])c(N)c1=O; Sta = CC(C)C[C@H](N)[C@@H](O)CC(=O)O; NMeV = CN[C@H](C(=O)O)C(C)C; Isovaleryl = CC(C)CC(=O)*; Cbz = O=C(OCc1ccccc1)*; Sar = CNCC(=O)O

Tests used:
Assay type in all cases: cell-based, human
hsp70 (hsp72) mRNA = test: Northern blot of hsp70 (hsp72) mRNA in HepG2 cells; conditions: with ALLN 40 μg/ml, 4 hours; actinomycin D 10 μg/ml; cycloheximide 50 μg/ml
Experimental: HepG2 cells were treated with serum-free MEM containing either 1.5% BSA alone (Control, lane1), BSA plus 40 μg/ml of ALLN (ALLN, lane2), ALLN and 10 μg/ml of actinomycin D (A+AD, lane3), or ALLN and 50 μg/ml of cycloheximide (A+CXM, lane4). After 4 hours treatment at 37° C., cells were harvested. (B). HepG2 cells were treated with 40 μg/ml of ALLN in the serum-free MEM for up to 0 hour (lane1), 1 hour (lane2), 2 hours (lane3), and 3 hours (lane4) and then harvested without recovery. Or after treatment for 3 hours in the presence of ALLN as above, the ALLN containing medium were removed, cells were washed and fed fresh medium containing only BSA for recovery of up to 1 hour (lane5), 3 hours (lane6), 5 hours (lane7) or 7 hours (lane8). The total RNA was prepared, and equal amounts of the samples were loaded and run on a 1% formaldehyde-agarose gel, blotted onto a nylon membrane, and subsequently hybridized with specific synthetic oligonucleotide probes for hsp70 mRNA as described under Experimental Details. The position of 28S and 18S rRNA are shown for reference.
Total RNA was prepared using the procedure of Chomczynski and Sacchi (Chomczynski, et al., 1987) and a commercially prepared reagent, TRISOLV™ (Biotecx Laboratories Inc., Tex.) . Equal amounts of tRNA samples (10 μg) were size-fractionated on a 1% agarose-formaldehyde gel according to the methods described (Maniatis, et al., 1982) and transferred to a piece of QIAGEN plus nylon membrane. To determine loading and transfer efficiency, RNA was stained with ethidium bromide before and after transfer. The membrane was baked for 30 min. at 80° C. in vacuo (a vacuum) followed by UV cross-linking. It was then incubated for 4 hours at 65° C. in a prehybridization mixture containing 10% dextran sulfate, 1% SDS, 1M sodium chloride, 50 mM Tris-HCl (pH 7.5) and 100 μg/ml denatured salmon sperm DNA. Hybridization was carried out for 18 hours at 65° C. in the same buffer with a ^32 P-labeled (1×10^6 cpm/ml) 40-mer oligonucleotide probe to the untranslated 5' region of a human hsp70 gene (Oncogene Science). […] The membrane was then washed four times with 2×SSC, 0.1% SDS at room temperature, one time at 65° C. for 30 min., and one time at room temperature again for 5 min., and finally rinsed with 2×SSC at room temperature. This membrane was air dried and exposed to X-ray film at -80° C. for 48 hours.
Total RNA was isolated from HepG2 cells which had been incubated for 4 hours at 37° C. (FIG. 5A) with MEM containing BSA alone (Control, lane1), BSA plus 40 μg/ml of ALLN (ALLN, lane2), BSA plus ALLN and […] of actinomycin D (A+AD, lane3) or BSA plus ALLN and 50 μg/ml of cycloheximide (A+CXM, lane4). A radioprobe containing a unique sequence specific for the 5' untranslated region of hsp72 (inducible form) (Freeman et al., 1993) was used for Northern blot analysis.

Hsp70 = Hsp70 levels by denaturing immunoprecipitation of [3H]-leucine radiolabeled HepG2 cells; conditions: for Induction of Hsp70 by protease inhibitors: HepG2, 4 hours pre-treatment, ALLN, ALLM 40 μg/ml, leupeptin, pepstatin A 50 μg/ml, E-64d 25 μg/ml, PMSF 1 mM, aprotinin 100 KIU/ml, Benz 1 mM, CIP 200 μM
Experimental: The HepG2 cell culture conditions were maintained as previously described (Dixon, et al., 1991). The cells were seeded into collagen-pre-coated dishes or six-well tissue culture plates and grown in complete medium containing minimum essential medium (MEM) with 0.1 mM nonessential amino acids, 1.0 mM sodium pyruvate, penicillin/streptomycin, and 10% fetal bovine serum. Cells were fed fresh complete medium every 3 days and maintained in a 5% CO2 incubator. All experiments were performed by using exponentially growing cells at 90-95% confluency. For heat shock treatment, the dishes were sealed with Parafilm and immersed in a water bath at 42° C. for indicated durations of time. Cells were incubated with ALLN alone at indicated concentrations or combined with other chemicals at 37° C. Cells were also incubated with different protease inhibitors alone at indicated concentrations or combined with other chemicals at 37° C.
(§1) HepG2 cells were preincubated for 4 hours in serum-free MEM and then radiolabeled with ^3 H-Leucine (150 μCi/ml) in a serum-free, leucine-free medium. Preincubation and labeling media each contained either 1.5% bovine serum albumin (BSA) alone, or BSA plus ALLN (40 μg/ml except as otherwise indicated), or BSA plus other protease inhibitors at concentrations indicated in the figure legends. At the indicated times, cells were removed from the 37° C. incubator and placed on ice, washed with cold phosphate-buffer saline (PBS) twice and lysed with lysis buffer containing 1% Triton X-100 (TX100), 1% deoxycholic acid (DOC) and 0.1% SDS in PBS containing proteinase inhibitors: 2 mM phenylmethylsulfonyl fluoride (PMSF); 2 μg/ml ALLN; 2 μg/ml leupeptin; and 2 μg/ml aprotinin. After a 30 min. incubation with lysis buffer at 4° C., the lysates were centrifuged at 14,000 g in a microcentrifuge for 5 min., and the supernatants were adjusted to 1% SDS concentration and boiled for 5 min. to denature the proteins. 1% TX100 was then added to dilute the lysates to a final concentration of 0.1% SDS. Cell lysates containing equal amounts of trichloroacetic acid (TCA)-insoluble radioactivity were used for immunoprecipitations by incubating with individual monoclonal antibody (1 μg/ml) for 2.5 hours at 4° C. Protein-A Sepharose 4B was added afterwards and the lysates incubated for another 1.5 hours at 4° C. to collect the immunocomplexes. After washing four times with 1×NET buffer (containing 0.5% TX100, 0.1% SDS), the immunocomplexes were mixed with sample buffer and boiled for 5 min. Following centrifugation, the supernatants were aliquoted for scintillation counting and for 3-15% gradient polyacrymide gel electrophoresis (SDS-PAGE) . The gels were later subjected to fluorography. All values are presented as the mean ± S.D. from three individual experiments except as otherwise indicated.
Denaturing immunoprecipitation was chosen because Hsp70 is a major cytosolic chaperone protein and it is co-immunoprecipitated with a number of other proteins under non-denaturingconditions (Beckmann, et al., 1990; Zhou, et al., 1995).

HepG2 cells = test: Total incorporation of radiolabel (TCA cpm) as indicator of cell toxicity, HepG2; conditions: HepG2, 4 hours; MG132 10 or 30 μM; lactacystin 10 μM
Experimental: as §1

Compound | Induction of Hsp70 by protease inhibitors (Hsp70) | further results
Cc1c2oc3c(C)ccc(C(=O)N[C@@H]4C(=O)N[C@H](C(C)C)C(=O)N5CCC[C@H]5C(=O)N(C)CC(=O)N(C)[C@@H](C(C)C)C(=O)O[C@@H]4C)c3nc-2c(C(=O)N[C@@H]2C(=O)N[C@H](C(C)C)C(=O)N3CCC[C@H]3C(=O)N(C)CC(=O)N(C)[C@@H](C(C)C)C(=O)O[C@@H]2C)c(N)c1=O [actinomycin D] (I: T[dV]P[Sar][NMeV] / II: T[dV]P[Sar][NMeV]; ester I:1-I:C, II:1-II:C; linker I:N-II:N via Actinocin(9to1)) | – | Effect of co-treatment on ALLN-induced hsp70 (hsp72) mRNA (hsp70 (hsp72) mRNA): abolished the effects of ALLN
aprotinin | No induction | –
CC(=O)N[C@@H](CC(C)C)C(=O)N[C@@H](CC(C)C)C(=O)N[C@H](C=O)CCCNC(=N)N [Leupeptin, leupeptin] | ineffective | –
CC(C)C[C@@H](C=O)NC(=O)[C@H](CC(C)C)NC(=O)[C@H](CC(C)C)NC(=O)OCc1ccccc1 [MG132, Cbz-leucyl-leucyl-leucinal] (Cbz-Leu-Leu-Leu-aldehyde) | – | Induction of Hsp70 levels by proteasome inhibitors (Hsp70; HepG2, 4 hours, MG132 10 μM or 30 μM, lactacystin 10 μM, 30 min radiolabeling): induced Hsp70 levels dramatically; Toxicity to the cells (TCA-precipitable radioactivities) (HepG2 cells): without obvious toxicity
CC(C)CC(=O)N[C@H](C(=O)N[C@H](C(=O)N[C@@H](CC(C)C)[C@@H](O)CC(=O)N[C@@H](C)C(=O)N[C@@H](CC(C)C)[C@@H](O)CC(=O)O)C(C)C)C(C)C [pepstatin] (Isovaleryl-VV[Sta]A[Sta]-OH) | No induction | –
O=S(=O)(F)Cc1ccccc1 [PMSF, phenylmethylsulfonyl fluoride] | No induction | –
